From patent US10865191B2, “Heterocyclic compounds useful as modulators of TNF alpha” (BRISTOL-MYERS SQUIBB COMPANY, priority 2015, dated 2020)
pIC50: −log10 of the molar value.

Molecular target: TNFα (Homo sapiens, UniProt P01375)
Assay: TNF induced HEK-Blue assay (NF-kB-driven secreted alkaline phosphatase reporter)
Type: cell-based
Conditions: TNFα 0.5 ng/mL, HEK-Blue-CD40L cells, 18 h; read-out: TNF induced HEK-Blue assay IC50 value
Method in brief: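 HEK-Blue-CD40L cells (NF-kB-driven SEAP reporter), 20,000/well, added after 30 min pre-incubation of compound (0.004–25 μM final) with TNFα 0.5 ng/mL final at 37 °C; 18 h incubation. SEAP read with QUANTI-Blue at 620 nm; IC50 from 4-parameter logistic fit, normalized to unstimulated and stimulated DMSO controls.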

Sequence of TNFα (P01375 77-233 limits assumed): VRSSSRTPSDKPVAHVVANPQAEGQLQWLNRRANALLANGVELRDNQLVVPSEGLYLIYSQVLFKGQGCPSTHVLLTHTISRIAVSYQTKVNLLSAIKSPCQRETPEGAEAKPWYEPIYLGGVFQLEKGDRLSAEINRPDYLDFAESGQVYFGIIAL

Row | Structure (SMILES) | pIC50
1 | Cc1ccc(C)c(Nc2c(Cl)c(N)nc3ccc(-c4cnc(N5CCN(CC(=O)O)CC5)nc4)cc23)c1 [Example 45, 2-(4-(5-(2-amino-3-chloro-4-((2,5-dimethylphenyl)amino)quinolin-6-yl)pyrimidin-2-yl)piperazin-1-yl)acetic acid] | > 6.00
2 | CC(Nc1c(Cl)c(N)nc2ccc(-c3cnc(N4CCN(CC(=O)O)CC4)nc3)cc12)c1ccccc1F (centres unmarked) [Example 46, 2-(4-(5-(2-amino-3-chloro-4-((1-(2-fluorophenyl)ethyl)amino)quinolin-6-yl)pyrimidin-2-yl)piperazin-1-yl) acetic acid] | > 6.00
3 | CC(C)(O)c1ncc(-c2ccc3ncc(Cl)c(NN4CCc5ccccc54)c3c2)cn1 [Example 47, 2-(5-(3-chloro-4-(indolin-1-ylamino)quinolin-6-yl)pyrimidin-2-yl)propan-2-ol] | > 6.00
4 | C[C@@H](Nc1c(Cl)cnc2ccc(-c3cnc(C(C)(C)O)nc3)cc12)c1cc(Cl)ncc1F [Example 53, (R)-2-(5-(3-chloro-4-((1-(2-chloro-5-fluoropyridin-4-yl)ethyl)amino)quinolin-6-yl)pyrimidin-2-yl)propan-2-ol] | 5.00 to 6.00
5 | CN(Nc1c(Cl)cnc2ccc(-c3cnc(C(C)(C)O)nc3)cc12)c1ccccc1 [Example 54, 2-(5-(3-chloro-4-(2-methyl-2-phenylhydrazinyl)quinolin-6-yl)pyrimidin-2-yl)propan-2-ol] | > 6.00
6 | CC(C)(O)c1ncc(-c2ccc3ncc(Cl)c(NCc4ccc(Br)cc4-n4cccn4)c3c2)cn1 [Example 56, 2-(5-(4-((4-bromo-2-(1H-pyrazol-1-yl)benzyl)amino)-3-chloroquinolin-6-yl)pyrimidin-2-yl)propan-2-ol] | 4.60 to 5.00
7 | C[C@@H](Nc1c(Cl)cnc2ccc(-c3cnc(C(C)(C)O)nc3)cc12)C1CCCCC1 [Example 58, (R)-2-(5-(3-chloro-4-((1-cyclohexylethyl)amino)quinolin-6-yl)pyrimidin-2-yl)propan-2-ol] | > 6.00
8 | C[C@H](Nc1c(Cl)cnc2ccc(-c3cnc(C(C)(C)O)nc3)cc12)C1CCCCC1 [Example 59, (S)-2-(5-(3-chloro-4-((1-cyclohexylethyl)amino)quinolin-6-yl)pyrimidin-2-yl)propan-2-ol] | 4.60 to 5.00
9 | C=CC[C@@H](Nc1c(Cl)cnc2ccc(-c3cnc(C(C)(C)O)nc3)cc12)c1cc(Cl)ccn1 [Example 63, (R)-2-(5-(3-chloro-4-((1-(4-chloropyridin-2-yl)but-3-en-1-yl)amino)quinolin-6-yl)pyrimidin-2-yl)propan-2-ol] | > 6.00
10 | Cc1ccc(C)c(Nc2c(Cl)c(C)nc3ccc(-c4ccc(C(=O)NCCCCN)nc4)cc23)c1 [Example 65, N-(4-aminobutyl)-5-(3-chloro-4-((2,5-dimethylphenyl)amino)-2-methylquinolin-6-yl) picolinamide] | 5.00 to 6.00
11 | CCN(Cc1c(Cl)cnc2ccc(-c3cnc(C(C)(C)O)nc3)cc12)c1ccccc1 [Example 66, 2-(5-(3-chloro-4-((ethyl(phenyl)amino)methyl)quinolin-6-yl)pyrimidin-2-yl)propan-2-ol] | 5.00 to 6.00
12 | CN(Cc1c(Cl)cnc2ccc(-c3cnc(C(C)(C)O)nc3)cc12)c1ccccc1F [Example 67, 2-(5-(3-chloro-4-(((2-fluorophenyl)(methyl)amino)methyl)quinolin-6-yl)pyrimidin-2-yl)propan-2-ol] | 5.00 to 6.00
13 | CCN(Cc1c(Cl)cnc2ccc(-c3cnc(C(C)(C)O)nc3)cc12)c1ccccc1F [Example 68, 2-(5-(3-chloro-4-((ethyl(2-fluorophenyl)amino)methyl)quinolin-6-yl)pyrimidin-2-yl)propan-2-ol] | > 6.00
14 | Cc1ccc(C)c(Nc2c(Cl)c(N)nc3ccc(-c4cnc(NCC(C)(C)O)nc4)cc23)c1 [Example 69, 1-((5-(2-amino-3-chloro-4-((2,5-dimethylphenyl)amino)quinolin-6-yl)pyrimidin-2-yl)amino)-2-methylpropan-2-ol] | > 6.00
15 | Cc1ccc(C)c(Nc2c(Cl)c(N)nc3ccc(-c4cnc(NCCO)nc4)cc23)c1 [Example 70, 2-((5-(2-amino-3-chloro-4-((2,5-dimethylphenyl)amino)quinolin-6-yl)pyrimidin-2-yl)amino)ethan-1-ol] | > 6.00
16 | Cc1ccc(C)c(Nc2c(Cl)c(N)nc3ccc(-c4cnc(NC(CO)CO)nc4)cc23)c1 [Example 71, 2-((5-(2-amino-3-chloro-4-((2,5-dimethylphenyl)amino)quinolin-6-yl)pyrimidin-2-yl)amino)propane-1,3-diol] | > 6.00

Row | Structure (SMILES) | pIC50
17 | Cc1ccc(C)c(Nc2c(Cl)c(N)nc3ccc(-c4cnc(N5CCNC(=O)C5)nc4)cc23)c1 [Example 72, 4-(5-(2-amino-3-chloro-4-((2,5-dimethylphenyl)amino)quinolin-6-yl)pyrimidin-2-yl)piperazin-2-one] | > 6.00
18 | O=C(O)[C@@H]1CN(c2ncc(-c3ccc4ncc(Cl)c(N[C@@H](c5ccccc5F)C(F)F)c4c3)cn2)CCN1 [Example 74, (S)-4-(5-(3-chloro-4-(((S)-2,2-difluoro-1-(2-fluorophenyl)ethyl)amino)quinolin-6-yl)pyrimidin-2-yl)piperazine-2-carboxylic acid] | 5.00 to 6.00
19 | NC1(C(=O)O)CCN(c2ncc(-c3ccc4ncc(Cl)c(N[C@@H](c5ccccc5F)C(F)F)c4c3)cn2)CC1 [Example 75, (S)-4-amino-1-(5-(3-chloro-4-((2,2-difluoro-1-(2-fluorophenyl)ethyl)amino)quinolin-6-yl)pyrimidin-2-yl)piperidine-4-carboxylic acid] | > 6.00
20 | O=C(O)CN1CCN(c2ncc(-c3ccc4ncc(Cl)c(N[C@@H](c5ccccc5F)C(F)F)c4c3)cn2)CC1=O [Example 76, (S)-2-(4-(5-(3-chloro-4-((2,2-difluoro-1-(2-fluorophenyl)ethyl)amino)quinolin-6-yl)pyrimidin-2-yl)-2-oxopiperazin-1-yl)acetic acid] | > 6.00
21 | O=C(O)CC1CCN(c2ncc(-c3ccc4ncc(Cl)c(N[C@@H](c5ccccc5F)C(F)F)c4c3)cn2)CC1 [Example 78, (S)-2-(1-(5-(3-chloro-4-((2,2-difluoro-1-(2-fluorophenyl)ethyl)amino)quinolin-6-yl)pyrimidin-2-yl)piperidin-4-yl)acetic acid] | > 6.00
22 | O=C1CN(c2ncc(-c3ccc4ncc(Cl)c(N[C@@H](c5ccccc5F)C(F)F)c4c3)cn2)CCN1 [Example 79, (S)-4-(5-(3-chloro-4-((2,2-difluoro-1-(2-fluorophenyl)ethyl)amino)quinolin-6-yl)pyrimidin-2-yl)piperazin-2-one] | > 6.00
23 | CC(C)(O)CNc1ncc(-c2ccc3ncc(Cl)c(N[C@@H](c4ccccc4F)C(F)F)c3c2)cn1 [Example 80, (S)-1-((5-(3-chloro-4-((2,2-difluoro-1-(2-fluorophenyl)ethyl)amino)quinolin-6-yl)pyrimidin-2-yl)amino)-2-methylpropan-2-ol] | > 6.00
24 | C[C@@H](Nc1c(Cl)cnc2ccc(-c3ccc(N4CCN(CC(=O)O)C(=O)C4)nc3)cc12)c1ccccc1F [Example 81, (R)-2-(4-(5-(3-chloro-4-((1-(2-fluorophenyl)ethyl)amino)quinolin-6-yl)pyridin-2-yl)-2-oxopiperazin-1-yl)acetic acid] | 5.00 to 6.00
25 | C[C@@H](Nc1c(Cl)cnc2ccc(-c3ccc(N4CCC(CC(=O)O)CC4)nc3)cc12)c1ccccc1F [Example 82, (R)-2-(1-(5-(3-chloro-4-((1-(2-fluorophenyl)ethyl)amino)quinolin-6-yl)pyridin-2-yl)piperidin-4-yl)acetic acid] | > 6.00
26 | C[C@@H](Nc1c(Cl)cnc2ccc(-c3ccc(N4CCO[C@@H](CO)C4)nc3)cc12)c1ccccc1F [Example 83, ((R)-4-(5-(3-chloro-4-(((R)-1-(2-fluorophenyl)ethyl)amino)quinolin-6-yl)pyridin-2-yl)morpholin-2-yl)methanol] | > 6.00
27 | C[C@@H](Nc1c(Cl)cnc2ccc(-c3ccc(N4CCN[C@H](CO)C4)nc3)cc12)c1ccccc1F [Example 84, ((S)-4-(5-(3-chloro-4-(((R)-1-(2-fluorophenyl)ethyl)amino)quinolin-6-yl)pyridin-2-yl)piperazin-2-yl)methanol] | > 6.00
28 | C[C@@H](Nc1c(Cl)cnc2ccc(-c3ccc(N4CCOC[C@H]4CO)nc3)cc12)c1ccccc1F [Example 85, ((R)-4-(5-(3-chloro-4-(((R)-1-(2-fluorophenyl)ethyl)amino)quinolin-6-yl)pyridin-2-yl)morpholin-3-yl)methanol] | 5.00 to 6.00
29 | OC[C@@H]1CN(c2ncc(-c3ccc4ncc(Cl)c(N[C@@H](c5ccccc5F)C(F)F)c4c3)cn2)CCN1 [Example 86, ((S)-4-(5-(3-chloro-4-(((S)-2,2-difluoro-1-(2-fluorophenyl)ethyl)amino)quinolin-6-yl)pyrimidin-2-yl)piperazin-2-yl)methanol] | > 6.00
30 | OC[C@@H]1CN(c2ncc(-c3ccc4ncc(Cl)c(N[C@@H](c5ccccc5F)C(F)F)c4c3)cn2)CCO1 [Example 87, ((S)-4-(5-(3-chloro-4-(((S)-2,2-difluoro-1-(2-fluorophenyl)ethyl)amino)quinolin-6-yl)pyrimidin-2-yl)morpholin-2-yl)methanol] | > 6.00
31 | C[C@@H](Nc1c(Cl)cnc2ccc(-c3ccc(N4CCNCC4)nc3)cc12)c1ccccc1F [Example 88, (R)-3-chloro-N-(1-(2-fluorophenyl)ethyl)-6-(6-(piperazin-1-yl)pyridin-3-yl)quinolin-4-amine] | 5.00 to 6.00
32 | CNC(=O)CN1CCN(c2ncc(-c3ccc4ncc(Cl)c(N[C@H](C)c5ccccc5F)c4c3)cn2)CC1 [Example 89, (R)-2-(4-(5-(3-chloro-4-((1-(2-fluorophenyl)ethyl)amino)quinolin-6-yl)pyrimidin-2-yl)piperazin-1-yl)-N-methylacetamide] | > 6.00
